IC50 data for 25 molecules are collected here from patent US8148391B2 (Cephalon, Inc., priority 2006, dated 2012).

For test [1], the target named is T1, baculovirus-expressed ALK (Homo sapiens, UniProt Q9UM73).
T1 construct: host or cells: baculovirus expression system
The test is described as follows: ALK Kinase Assay (ELISA-type, time-resolved fluorescence). Type of test: biochemical. Particulars: ALK kinase inhibition, 1 μM ATP (Km level); read-out: ALK Activity. In short, it runs like this: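 Wells were coated with phospholipase C-γ at 10 μg/mL in Tris-buffered saline. Adding 30 ng/ml enzyme started the reaction, which ran at 37° C for 15 minutes before Eu-N1 PT66 antibody detection. Percent inhibition versus log10 concentration gave IC50 by variable-slope fit.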

Test [2] deals with T2, c-Met (cytoplasmic domain) (Homo sapiens, UniProt P08581).
T2 construct: 10 ng/mL c-Met (cytoplasmic domain, Invitrogen Corporation #PV3143); purchased Invitrogen Corporation PV3143
T2 sequence (P08581 956-1390 limits assumed): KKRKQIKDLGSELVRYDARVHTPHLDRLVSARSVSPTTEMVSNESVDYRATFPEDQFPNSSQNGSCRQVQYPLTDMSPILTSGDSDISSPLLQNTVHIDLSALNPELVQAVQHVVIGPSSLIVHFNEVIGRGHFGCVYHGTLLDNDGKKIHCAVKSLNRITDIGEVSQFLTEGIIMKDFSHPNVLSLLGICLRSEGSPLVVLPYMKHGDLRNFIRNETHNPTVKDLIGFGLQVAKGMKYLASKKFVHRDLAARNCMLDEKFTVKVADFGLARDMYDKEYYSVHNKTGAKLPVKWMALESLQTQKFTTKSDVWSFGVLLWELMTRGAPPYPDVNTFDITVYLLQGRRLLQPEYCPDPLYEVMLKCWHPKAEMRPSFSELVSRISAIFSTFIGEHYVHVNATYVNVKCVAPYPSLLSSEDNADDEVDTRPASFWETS
As to the kind of experiment: c-Met Kinase Assay (same methods as for ALK, with modifications). The test is classed as biochemical. Particulars: c-Met kinase inhibition, 1 μM ATP (Km level); read-out: cMet Activity. In short, it runs like this: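 IC50 values were fitted by variable-slope sigmoidal regression of percent inhibition against log compound concentration. Phosphorylation was read with Eu-N1 PT66 antibody after a 15 min, 37 °C reaction. The reaction was initiated with 10 ng/mL c-Met cytoplasmic domain on wells coated with 10 μg/mL PLC-γ in TBS.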

Molecules are shown by their SMILES. A value given as a limit tells only on which side of the number the result lay.

T1 sequence (Q9UM73 19-1620): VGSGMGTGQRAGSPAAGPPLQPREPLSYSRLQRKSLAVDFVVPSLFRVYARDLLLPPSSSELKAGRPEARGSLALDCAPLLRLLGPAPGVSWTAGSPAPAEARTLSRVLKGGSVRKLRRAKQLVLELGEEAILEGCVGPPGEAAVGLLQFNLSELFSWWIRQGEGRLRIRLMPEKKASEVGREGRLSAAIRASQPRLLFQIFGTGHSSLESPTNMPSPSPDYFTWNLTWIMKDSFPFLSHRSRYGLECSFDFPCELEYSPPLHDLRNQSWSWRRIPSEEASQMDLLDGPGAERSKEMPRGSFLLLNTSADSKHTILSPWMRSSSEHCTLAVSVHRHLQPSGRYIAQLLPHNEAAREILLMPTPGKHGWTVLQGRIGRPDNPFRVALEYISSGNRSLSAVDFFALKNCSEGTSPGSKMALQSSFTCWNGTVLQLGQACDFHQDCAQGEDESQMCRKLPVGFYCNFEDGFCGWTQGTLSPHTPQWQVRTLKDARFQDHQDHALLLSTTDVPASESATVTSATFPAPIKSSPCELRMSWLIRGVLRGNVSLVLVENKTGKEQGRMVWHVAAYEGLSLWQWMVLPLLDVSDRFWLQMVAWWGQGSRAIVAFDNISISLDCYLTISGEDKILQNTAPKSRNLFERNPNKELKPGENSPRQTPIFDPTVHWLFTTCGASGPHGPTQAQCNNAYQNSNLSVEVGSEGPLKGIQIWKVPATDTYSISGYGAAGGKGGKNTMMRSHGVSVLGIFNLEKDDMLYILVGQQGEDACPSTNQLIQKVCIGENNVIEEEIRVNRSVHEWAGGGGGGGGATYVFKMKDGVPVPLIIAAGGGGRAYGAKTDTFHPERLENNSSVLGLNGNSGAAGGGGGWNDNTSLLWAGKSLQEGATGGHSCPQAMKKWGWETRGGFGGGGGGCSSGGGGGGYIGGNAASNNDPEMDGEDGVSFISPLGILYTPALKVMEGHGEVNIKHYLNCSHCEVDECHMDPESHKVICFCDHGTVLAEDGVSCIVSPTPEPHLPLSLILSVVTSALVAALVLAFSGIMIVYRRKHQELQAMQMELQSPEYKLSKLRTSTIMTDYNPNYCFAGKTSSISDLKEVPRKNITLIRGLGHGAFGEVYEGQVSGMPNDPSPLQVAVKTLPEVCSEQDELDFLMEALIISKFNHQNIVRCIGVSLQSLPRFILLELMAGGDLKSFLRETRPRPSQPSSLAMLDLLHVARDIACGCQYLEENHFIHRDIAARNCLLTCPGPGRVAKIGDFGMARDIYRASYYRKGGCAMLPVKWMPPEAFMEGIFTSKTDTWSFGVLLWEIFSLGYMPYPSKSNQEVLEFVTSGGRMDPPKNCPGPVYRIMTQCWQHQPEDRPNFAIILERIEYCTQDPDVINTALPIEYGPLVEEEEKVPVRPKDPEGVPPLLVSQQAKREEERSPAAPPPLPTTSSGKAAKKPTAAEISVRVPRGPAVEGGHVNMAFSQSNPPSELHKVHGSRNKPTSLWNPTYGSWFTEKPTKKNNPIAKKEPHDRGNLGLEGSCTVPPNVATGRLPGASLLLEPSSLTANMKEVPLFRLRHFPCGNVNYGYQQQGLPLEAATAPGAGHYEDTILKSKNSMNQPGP

Regarding `CC1(C)CCCNc2ccc(Nc3ncc(Cl)c(N[C@@H]4CCCC[C@H]4NS(C)(=O)=O)n3)cc21` [Example 392, N-{(1R,2R)-2-[5-Chloro-2-(5,5-dimethyl-2,3,4,5-tetrahydro-1H-benzo[b]azepin-7-ylamino)-pyrimidin-4-ylamino]-cyclohexyl}-methanesulfonamide], the IC50 is below 100 nM in test [1] and 1000 to 10000 nM in test [2].

On to `CC1(C)CCC(=O)Nc2ccc(Nc3ncc(Cl)c(NC4C5C=CC(C5)C4C(N)=O)n3)cc21` (stereo not drawn) [Example 394, (2-exo,3-exo)-3-[5-Chloro-2-(5,5-dimethyl-2-oxo-2,3,4,5-tetrahydro-1H-benzo[b]azepin-7-ylamino)-pyrimidin-4-ylamino]-bicyclo[2.2.1]hept-5-ene-2-carboxylic acid amide], for which the IC50 was below 100 nM in test [1] and 100 to 1000 nM in test [2].

On to `CC(=O)N[C@@H]1CCCC[C@H]1Nc1nc(Nc2ccc3c(c2)C(C)(C)CCC(=O)N3)ncc1Cl` [Example 395, N-{(1R,2R)-2-[5-Chloro-2-(5,5-dimethyl-2-oxo-2,3,4,5-tetrahydro-1H-benzo[b]azepin-7-ylamino)-pyrimidin-4-ylamino]-cyclohexyl}-acetamide], for which the IC50 in test [1] is below 100 nM; in test [2], 100 to 1000 nM.

With `Cn1ccnc1-c1ccccc1Nc1nc(Nc2ccc3c(c2)C(C)(C)CCC(=O)N3)ncc1Cl` [Example 397, 7-{5-Chloro-4-[2-(1-methyl-1H-imidazol-2-yl)-phenylamino]-pyrimidin-2-ylamino}-5,5-dimethyl-1,3,4,5-tetrahydro-benzo[b]azepin-2-one], the IC50 in test [1] is below 100 nM; in test [2], 100 to 1000 nM.

Regarding `CC1(C)CCC(=O)Nc2ccc(Nc3ncc(Cl)c(Nc4ccccc4-n4cccn4)n3)cc21` [Example 398, 7-[5-Chloro-4-(2-pyrazol-1-yl-phenylamino)-pyrimidin-2-ylamino]-5,5-dimethyl-1,3,4,5-tetrahydro-benzo[b]azepin-2-one], the IC50 in test [1] was below 100 nM; in test [2] it was above 10000 nM.

Turning to `CNC(=O)c1cccc(F)c1Nc1nc(Nc2ccc3c(c2)C(=O)NCCC3)ncc1Cl` [Example 400, 2-[5-Chloro-2-(1-oxo-2,3,4,5-tetrahydro-1H-benzo[c]azepin-8-ylamino)-pyrimidin-4-ylamino]-3-fluoro-N-methyl-benzamide], the IC50 in test [1] and in test [2] was 100 to 1000 nM each time.

On to `CNC(=O)c1cccc(C)c1Nc1nc(Nc2ccc3c(c2)C(=O)NCCC3)ncc1Cl` [Example 401, 2-[5-Chloro-2-(1-oxo-2,3,4,5-tetrahydro-1H-benzo[c]azepin-8-ylamino)-pyrimidin-4-ylamino]-3,N-dimethyl-benzamide], for which the values for the IC50 in test [1] and in test [2] were above 10000 nM and 100 to 1000 nM, respectively.

For the molecule `CNC(=O)c1ccccc1Nc1nc(Nc2ccc3c(c2)NCCNC3=O)ncc1Cl` [Example 411, 2-[5-Chloro-2-(5-oxo-2,3,4,5-tetrahydro-1H-benzo[e][1,4]diazepin-8-ylamino)-pyrimidin-4-ylamino]-N-methylbenzamide], the IC50 in test [1] and in test [2] was below 100 nM throughout.

For the molecule `CNC(=O)c1ccccc1Nc1nc(Nc2ccc3c(c2)NCCN(C)C3=O)ncc1Cl` [Example 412, 2-[5-Chloro-2-(4-methyl-5-oxo-2,3,4,5-tetrahydro-1H-benzo[e][1,4]diazepin-8-ylamino)-pyrimidin-4-ylamino]-N-methylbenzamide], the IC50 in test [1] and in test [2] was below 100 nM throughout.

Take `CNC(=O)c1ccccc1Nc1nc(Nc2ccc3c(c2)N(C)CCN(C)C3=O)ncc1Cl` [Example 413, 2-[5-Chloro-2-(1,4-dimethyl-5-oxo-2,3,4,5-tetrahydro-1H-benzo[e][1,4]diazepin-8-ylamino)-pyrimidin-4-ylamino]-N-methylbenzamide]: the IC50 in test [1] and in test [2] was below 100 nM in each case.

For `CNC(=O)c1ccccc1Nc1nc(Nc2ccc3c(c2)N(C)CCNC3=O)ncc1Cl` [Example 414, 2-[5-Chloro-2-(1-methyl-5-oxo-2,3,4,5-tetrahydro-1H-benzo[e][1,4]diazepin-8-ylamino)-pyrimidin-4-ylamino]-N-methylbenzamide], the IC50 in test [1] and in test [2] was below 100 nM in each case.

Regarding `CCN(CC)CCN1CCNC(=O)c2ccc(Nc3ncc(Cl)c(Nc4ccccc4C(=O)NC)n3)cc21` [Example 415, 2-{5-Chloro-2-[1-(2-diethylamino-ethyl)-5-oxo-2,3,4,5-tetrahydro-1H-benzo[e][1,4]diazepin-8-ylamino]-pyrimidin-4-ylamino}-N-methylbenzamide], the IC50 in test [1] was below 100 nM; in test [2] it was 100 to 1000 nM.

Take `CNC(=O)c1ccccc1Nc1nc(Nc2ccc3c(c2)N(C)CCNC3)ncc1Cl` [Example 417, 2-[5-Chloro-2-(1-methyl-2,3,4,5-tetrahydro-1H-benzo[e][1,4]diazepin-8-ylamino)-pyrimidin-4-ylamino]-N-methylbenzamide]: the IC50 in test [1] and in test [2] was below 100 nM throughout.

Turning to `CCN1CCN(CC)c2cc(Nc3ncc(Cl)c(Nc4ccccc4C(=O)NC)n3)ccc2C1=O` [Example 418, 2-[5-Chloro-2-(1,4-diethyl-5-oxo-2,3,4,5-tetrahydro-1H-benzo[e][1,4]diazepin-8-ylamino)-pyrimidin-4-ylamino]-N-methylbenzamide], the IC50 in test [1] and in test [2] was below 100 nM each time.

`CCN1CCN(CC)c2cc(Nc3ncc(Cl)c(Nc4ccccc4C(=O)NC)n3)ccc2C1` [Example 419, 2-[5-Chloro-2-(1,4-diethyl-2,3,4,5-tetrahydro-1H-benzo[e][1,4]diazepin-8-ylamino)-pyrimidin-4-ylamino]-N-methylbenzamide]: the IC50 in test [1] and in test [2] was below 100 nM in each case.

Take `CNC(=O)c1ccccc1Nc1nc(Nc2ccc3c(c2)CNCCN3C)ncc1Cl` [Example 420, 2-[5-Chloro-2-(1-methyl-2,3,4,5-tetrahydro-1H-benzo[e][1,4]diazepin-7-ylamino)-pyrimidin-4-ylamino]-N-methylbenzamide]: the IC50 in test [1] and in test [2] was below 100 nM each time.

Regarding `CN1CCNCc2cc(Nc3ncc(Cl)c(Nc4ccccc4NS(C)(=O)=O)n3)ccc21` [Example 421, N-{2-[5-Chloro-2-(1-methyl-2,3,4,5-tetrahydro-1H-benzo[e][1,4]diazepin-7-ylamino)-pyrimidin-4-ylamino]-phenyl}-methanesulfonamide], the IC50 was below 100 nM in test [1] and 100 to 1000 nM in test [2].

As to `CN1CCNCc2cc(Nc3ncc(Cl)c(N[C@@H]4CCCC[C@H]4NS(C)(=O)=O)n3)ccc21` [Example 422, N-{(1R,2R)-2-[5-Chloro-2-(1-methyl-2,3,4,5-tetrahydro-1H-benzo[e][1,4]diazepin-7-ylamino)-pyrimidin-4-ylamino]-cyclohexyl}-methanesulfonamide], the IC50 in test [1] is below 100 nM; in test [2], 1000 to 10000 nM.

In the case of `CCN1CCN(CC)c2cc(Nc3ncc(Cl)c(Nc4ccccc4NS(C)(=O)=O)n3)ccc2C1=O` [Example 423, N-{2-[5-Chloro-2-(1,4-diethyl-5-oxo-2,3,4,5-tetrahydro-1H-benzo[e][1,4]diazepin-8-ylamino)-pyrimidin-4-ylamino]-phenyl}-methanesulfonamide], the IC50 in test [1] is below 100 nM; in test [2] it was 100 to 1000 nM.

As for `CCN1CCN(CC)c2cc(Nc3ncc(Cl)c(N[C@@H]4CCCC[C@H]4NS(C)(=O)=O)n3)ccc2C1=O` [Example 424, N-{(1R,2R)-2-[5-Chloro-2-(1,4-diethyl-5-oxo-2,3,4,5-tetrahydro-1H-benzo[e][1,4]diazepin-8-ylamino)-pyrimidin-4-ylamino]-cyclohexyl}-methanesulfonamide], the IC50 was below 100 nM in test [1] and 1000 to 10000 nM in test [2].

With `CCN1CCN(CC)c2cc(Nc3ncc(Cl)c(Nc4ccccc4NS(C)(=O)=O)n3)ccc2C1` [Example 425, N-{2-[5-Chloro-2-(1,4-diethyl-2,3,4,5-tetrahydro-1H-benzo[e][1,4]diazepin-8-ylamino)-pyrimidin-4-ylamino]-phenyl}-methanesulfonamide], the IC50 in test [1] is below 100 nM; in test [2], 100 to 1000 nM.

For the molecule `CCN1CCN(CC)c2cc(Nc3ncc(Cl)c(N[C@@H]4CCCC[C@H]4NS(C)(=O)=O)n3)ccc2C1` [Example 426, N-{(1R,2R)-2-[5-Chloro-2-(1,4-diethyl-2,3,4,5-tetrahydro-1H-benzo[e][1,4]diazepin-8-ylamino)-pyrimidin-4-ylamino]-cyclohexyl}-methanesulfonamide], the IC50 is below 100 nM in test [1] and 100 to 1000 nM in test [2].

As to `CCN1CCN(CC)c2cc(Nc3ncc(Cl)c(N[C@@H]4CCCC[C@H]4NS(C)(=O)=O)n3)c(Cl)cc2C1` [Example 427, N-{(1R,2R)-2-[5-Chloro-2-(7-chloro-1,4-diethyl-2,3,4,5-tetrahydro-1H-benzo[e][1,4]diazepin-8-ylamino)-pyrimidin-4-ylamino]-cyclohexyl}-methanesulfonamide], the figures for the IC50 in test [1] and in test [2] were below 100 nM and above 10000 nM, respectively.

For the molecule `CNC(=O)c1ccccc1Nc1nc(Nc2ccc3c(c2)C(=O)NCCN3C)ncc1Cl` [Example 428, 2-[5-Chloro-2-(1-methyl-5-oxo-2,3,4,5-tetrahydro-1H-benzo[e][1,4]diazepin-7-ylamino)-pyrimidin-4-ylamino]-N-methylbenzamide], the IC50 in test [1] and in test [2] was below 100 nM each time.

`COCCN1CCN(C)c2ccc(Nc3ncc(Cl)c(Nc4ccccc4NS(C)(=O)=O)n3)cc2C1` [Example 429, N-(2-{5-Chloro-2-[4-(2-methoxy-ethyl)-1-methyl-2,3,4,5-tetrahydro-1H-benzo[e][1,4]diazepin-7-ylamino]-pyrimidin-4-ylamino}-phenyl)-methanesulfonamide]: the results for the IC50 in test [1] and in test [2] were below 100 nM and 100 to 1000 nM, respectively.
